Here are results for 3 compounds from US20180050012A1, “Method for Inhibiting Growth of Ovarian Cancer Cells” (NEW BELLUS ENTERPRISES CO., LTD., priority 2016, published 2018).

Details of data set [1]: species or system NOD-SCID mice. Particulars: mouse, in vivo. The procedure:
In this study, tumors were induced by malignant ovarian cancer cell line ES-2 in NOD-SCID mice to establish malignant ovarian cancer animal models. The efficacy of oral and intraperitoneal administration of 4-acetyl-antroquinonol B for ovarian cancer was evaluated. In the ovarian cancer animal models, the malignant ovarian cancer cell line ES-2 was implanted subcutaneously to simulate the symptoms of malignant ovarian cancer. And the same time, the animals were fed with different concentrations of 4-acetyl-antroquinonol B every day for six weeks. The animals were sacrificed each week in the six weeks, respectively. […] Importantly, as for safety of 4-acetyl-antroquinonol B, the body weight changes of each group of mice were monitored weekly. […]
The ES-2 ovarian cancer cells in logarithmic phase were mixed with serum suspension and 0.1 ml (2×10^6 cells) was inoculated into hind legs of NOD-SCID immunodeficient mice to form tumors. […] Changes in tumor volume and body weight were monitored and recorded every week. […] The longest diameter (a) and the shortest diameter (b) of the tumor on mice were measured. The tumor size=(a*b2)/2, and the tumor growth curve was calculated.

The subject of data set [2] is ES-2 ovarian cancer cell line tumors. Put plainly: ES-2 xenograft ovarian cancer animal model, tumor growth. The format is in vivo, NOD-SCID mice. Particulars: for cell growth of ovarian cancer cell line ES-2 (tumor growth status), single agent: administration of either agent alone. The protocol:
In this study, tumors were induced by malignant ovarian cancer cell line ES-2 in NOD-SCID mice to establish malignant ovarian cancer animal models. The efficacy of oral and intraperitoneal administration of 4-acetyl-antroquinonol B for ovarian cancer was evaluated. In the ovarian cancer animal models, the malignant ovarian cancer cell line ES-2 was implanted subcutaneously to simulate the symptoms of malignant ovarian cancer. And the same time, the animals were fed with different concentrations of 4-acetyl-antroquinonol B every day for six weeks. The animals were sacrificed each week in the six weeks, respectively. […] In addition, different doses of 4-acetyl-antroquinonol B were administered orally (5 mg/kg and 10 mg/kg), and 1 dose (3 mg/kg) of cisplatin was injected intravenously each week (three doses total) when the tumor size was about 70-250 mm^3. […] Importantly, as for safety of 4-acetyl-antroquinonol B, the body weight changes of each group of mice were monitored weekly. […] Therefore, 4-acetyl-antroquinonol B was a potential adjuvant therapy agent in the treatment of ovarian cancer.
Immunodeficient mice (NOD/SCID mice, about 4-6 weeks old) were purchased from BioLASCO Taiwan Co., Ltd. The test was initiated after a week of domestication.
The selected tumor cells were ES2 malignant ovarian cancer cells. ES-2 cell line was derived from a ovarian cancer cell line which was highly resistant to chemotherapy drugs (e.g. cisplatin) and had poor prognosis. It was an anchorage-dependent cell line with strong transfer capacity. The culture medium was DMEM containing 10% fetal bovine serum (FBS), 1% non-essential amino acids (NEAA), and 1% antibiotics. The cells were incubated in a incubator at 37° C., 5% CO2 and subcultured once every 3 to 4 days.
The cells were treated with 0.05% trypsin-EDTA for 3 to 5 minutes to be suspended. The serum-containing medium was added to neutralize trypsin. The mixture was then centrifuged at 1000 rpm at 20° C. for 5 min. The supernatant was removed and the cell pellet was gently dispersed. The cells were resuspended in a suitable volume of culture medium. After mixing evenly, a little cell fluid was taken and cells were counted with a cytometer. The cells were diluted to a concentration of 10^7 cells per milliliter, and approximately 0.15 ml was dispensed into a 1.5 ml small centrifuge tube.
A solution of 4-acetyl-antroquinonol B was prepared in DMSO (250 mg/ml, DMSO was used as the solvent). After 4-acetyl-antroquinonol B was completely dissolved, the solution was dispensed as stock solution and stored at 4° C. Sterile normal saline solution was added to the stock to make a 500-fold dilution. The mixture was mixed evenly and then injected intraperitoneally. Cisplatin, a current clinical standard chemotherapy drug, was also an injection with a concentration of 50 mg/ml or 5 mg/ml, and both of which were injected intravenously without further dilution.
The day before tumor cells injection, zoletil 50 (10-fold dilution) and rompun 2% were mixed (1:1), and 0.25 ml of the mixture was injected intraperitoneally to each mouse for anesthesia. The mice were exposed to radiation to suppress their immunity after they were asleep. The irradiation dose was 0.75 Gy.
Mice were anesthetized with 2.5% isoflurane. The hair of injection site was shaved. The injection site was disinfected with 75% alcohol and povidone-iodine before injection. ES2 tumor cells were injected via 29G insulin needle. […]

For a further data set, the system named is LC3BII. Description: Autophagy: immunohistochemical staining and western blot of LC3BII in ES-2 cells. The format is cell-based, human. The protocol:
(§1) Western blot is carried out in a standard procedure. The cells were washed twice with PBS and then a cell lysis solution was added. Cell debris was removed by centrifugation to collect protein degradation products. The protein concentrate was quantified by BCA assay kit (Pierce, Thermo Scientific, USA). Each sample was taken an equal amount of protein degradation products to 10% SDS-PAGE electrophoresis then transferred to a PVDF membrane, followed by the addition of anti-autophagy-related genes (Atg-7, Atg-5, and LC3BII) primary antibodies, and an anti-β-actin antibody as a control group. After the target proteins and the primary antibodies reacted overnight, the secondary antibody conjugated to HRP was added. Finally, the signals of the target proteins were determined by a luminescence-based imaging system (UVP, LLC, USA).
Presumably because cisplatin treatment initiated autophagy that enhanced viability. […] After 4-acetyl-antroquinonol B treatment, LC3BII was detected by immunohistochemical staining and western blot, showing that 4-acetyl-antroquinonol B did inhibit the LC3BII expression on autophagosomes (FIG. 2A). Cell autophagy would protect cancer cells from apoptosis caused by chemotherapies. Hydroxychloroquine was a widely used antiparasitic drug. […] Hydroxychloroquine increased the pH inside lysosomes thus made the lysosomes difficult to fuse with mature autophagosomes. The Inhibitory effect on autophagy could also solve the problem of cell autophagy resistance due to chemotherapies in cancer cells.
In general terms: In western blotting, separated proteins are transferred to a membrane and probed.

Data set [3] concerns ES-2 ovarian cancer cell line. Put plainly: Cytotoxicity test (SRB assay, cell viability). The format is cell-based, human. An excerpt:
(§2) The ovarian cancer cell lines used in this study included: ES-2, OV-2008, and SKOV-3 obtained from American Type Culture Collection (ATCC). ES-2 was a clear cell carcinoma cell line with high resistance to platinum chemotherapies. Compared with other types of cancer, the clear cell carcinoma was found having poor prognosis in previous studies. SKOV-3 and OV-2008 were more benign cell lines compared to ES-2. Cell culture medium was McCoy5A culture medium (GIbco, 16600-082) supplemented with 1% antibiotic (Gibco, 15140) and 10% fetal bovine serum (FBS, Sigma, F7524). The cells were incubated in a standard incubator (Shel Lab, Sheldon Manufacturing, USA) at 37° C., 5% CO2.
(§3) All the tested cells were incubated in a medium containing 10% fetal bovine serum. When the cells grew to about eighty percent full, the old culture medium was drained and the cells were washed with PBS (phosphate buffered saline) buffer solution. Then, 10 ml of serum-free culture medium was added. Different drugs were added depending on experimental purposes. The reaction was carried out in a 37° C. constant temperature incubator.
(§4) The ovarian cancer cell lines ES-2, OV-2008, and SKOV-3 were placed in a 96-well culture plate (2000 cells/per well) and incubated overnight in 100 μl of complete DMEM. 50 μl of complete DMEM equivalent sample containing 4-acetyl-antroquinonol B (0.5-50 μM) was added to the different wells of the culture plate. In addition, only 100 μl of complete DMEM was added to the control group. After 2 days of culture, the number of cells in each well was determined by sulforhodamine B (a protein-binding dye). Briefly, the cells were fixed in 10% trichloroacetic acid and stained with 0.4% sulforhodamine B. After stained for 20 minutes, the cells were washed with 1% acetic acid. Thereafter, the cell-bound sulforhodamine B was dissolved in 10 mM Tris base. The absorbance (optical density) was determined at 562 nm by a microtiter plate reader.

For data set [4], the system named is SKOV-3 ovarian cancer cell line. Put plainly: Cytotoxicity test (SRB assay, cell viability). The class given is cell-based, human.
Description: as §2, §3, §4
Background: In SRB staining, fixed cells bind dye roughly in proportion to their protein.

Data set [5] has as its system OV-2008 ovarian cancer cell line. Put plainly: Cytotoxicity test (SRB assay, cell viability). The format is cell-based, human. Particulars: 0.5-50 μM, 2 days, FIG. 1B.
Description: as §2, §3, §4

For the next data set, the system named is AKT/mTOR/p70S6K. Description: Western blot of signaling pathway molecules in ES2 cells. The class given is cell-based, human. Particulars: treatment for 0, 3, 6, and 12 hours, FIG. 3. The procedure: as §1
The effect of 4-acetyl-arbutin-B on cell proliferation and autophagy of ovarian cancer cell line ES2 was observed, and the expression of autophagy-associated protein LC3BII and signaling pathway molecules AKT/mTOR/p70S6K were detected by western blot.

A further data set deals with ES-2 cell line. Description: Clonogenicity analysis. The class given is cell-based, human. Particulars: FIG. 2D. The protocol: In a 6-well plate was seeded 600 cells per well. The culture medium was McCoy5A supplemented with 10% fetal bovine serum.
In the next data set the test system is Atg-5. Put plainly: Western blot of Atg-5 in treated cells. The format is cell-based, human. Conditions: FIG. 2C. The protocol:
as §1

Another data set has as its system Atg-7. Put plainly: Western blot of Atg-7 in treated cells. The class given is cell-based, human. Particulars: FIG. 2C. The protocol: as §1
For the next data set, the system named is cell autophagy. Conditions: recent phase II clinical study; cited from earlier work.

Consider `N.N.[Cl][Pt][Cl]` [cisplatin, reference compound], for which, in data set [1], the “body weight after sustained decrease from approximately 26 g” value was “about 21 g”. Besides, the “cell growth of ovarian cancer cell line ES-2 (tumor growth status), single agent” value in data set [2] is “effectively inhibited”. Moreover, the “autophagy phenomenon after cisplatin treatment” value with LC3BII (ES-2 cell line) is “more significant”.
Regarding `COC1=C(OC)[C@H](OC(C)=O)[C@H](C/C=C(\C)CC/C=C(\C)C[C@H]2C[C@H](C)C(=O)O2)[C@@H](C)C1=O` [4-acetyl-antroquinonol B], the “growth of ES2 cells” value in data set [3] (20 uM, time-dependent effect, P<0.05) was “significantly inhibited”. For the same compound, the “response to 4-acetyl-antroquinonol B in cell viability test (cytotoxicity)” value is listed as “most pronounced response” in data set [3] (ES-2, 0.5-50 μM, 2 days, FIG. 1B) and “responsive” in [5]. In addition, in data set [3] (ES-2 pretreated with 5 μM cisplatin, same concentration), the “cell viability compared with hydroxychloroquine” value was “significantly lower than that in cells treated with hydroxychloroquine”. Besides, in data set [4], the “inhibitory effect on ovarian cancer cell line” value is “high inhibitory effect”. In addition, in the data set with AKT/mTOR/p70S6K, the “expressions of signaling pathway key molecules AKT/mTOR/p70S6K” value is “significantly reduced”. In addition, in the data set on ES-2 cell line, the “cell colony formation efficiency” value was “decreased”. In addition, in [1], the “safety in the living body” value is “extremely high”. Moreover, the “cell growth of ovarian cancer cell line ES-2 (tumor growth status), single agent” value in data set [2] is given as “effectively inhibited”. The “inhibitory effect on tumor growth, administered alone” value in [2] (oral 5 mg/kg and 10 mg/kg) is reported as “dose-dependent inhibitory effect”. For the same compound, in data set [2] (oral or intraperitoneal injection, daily for six weeks), the “tumor severity versus control group” value is listed as “significantly lower”. The “combined inhibitory effect on ovarian cancer with cisplatin and FOLFOX” value in data set [2] (ovarian cancer animal model) is on record as “synergistic inhibitory effect”. In addition, the “expression of downstream Atg-5” value with Atg-5 is “inhibited”. The cell autophagy entry in the data set with LC3BII (ES-2 cell line) is recorded as “significantly inhibited”. The “autophagosome maturation compared with hydroxychloroquine” value with LC3BII (ES-2 pretreated with 5 μM cisplatin, FIG. 2B) is on record as “inhibited more than in cells treated with hydroxychloroquine”. The “LC3BII expression on autophagosomes” value with LC3BII (immunohistochemical staining and western blot, FIG. 2A) was “did inhibit”. For the same compound, the “expression of Atg-7” value in the data set with Atg-7 is reported as “reduced”.
Regarding `CCN(CCO)CCCC(C)Nc1ccnc2cc(Cl)ccc12` (stereo not drawn) [hydroxychloroquine], the “inhibition of cell autophagy” value with cell autophagy is “could successfully inhibit cell autophagy”.
